Source: ChEMBL document CHEMBL2163231, “Synthesis and antituberculosis activity of novel unfolded and macrocyclic derivatives of ent-kaurane steviol” (2012)
≈ marks a conversion by molar mass, not a printed value.

system: Mycobacterium tuberculosis; assay: Antituberculosis activity against Mycobacterium tuberculosis H37Rv; assay type: functional

Going from `NNC(=O)c1ccncc1` [ISONIAZID] to `C[C@@]12CC[C@@H]3[C@@](CC[C@H]4[C@@]3(C)CCC[C@@]4(C)C(=O)O)(CC1=O)C2` [ISOSTEVIOL], the MIC rises from 1 µg/mL (≈ 7.29 µM) to 50 µg/mL (≈ 157 µM) (50-fold).

Going from `C[C@@H]1C[C@]23CC[C@@H]4[C@](C)(CCC[C@]4(C)C(=O)O)[C@H]2CC[C@@]1(OC(=O)CCCCCCCCC(=O)O)C3` to `C[C@@H]1C[C@]23CC[C@@H]4[C@](C)(CCC[C@]4(C)C(=O)O)[C@H]2CC[C@@]1(OC(=O)CCCCCCCCC(=O)O[C@]12CC[C@@H]4[C@](CC[C@H]5[C@@]4(C)CCC[C@@]5(C)C(=O)O)(C[C@@H]1C)C2)C3`, the MIC rises from 10 µg/mL (≈ 19.8 µM) to 20 µg/mL (≈ 24.8 µM) (2-fold).

`C[C@]12CC[C@H]3[C@](CC[C@@H]4[C@]3(C)CCC[C@]4(C)C(=O)O)(C[C@@H]1OC(=O)CC(=O)O[C@@H]1C[C@]34CC[C@H]5[C@@](C)(CCC[C@@]5(C)C(=O)O)[C@@H]3CC[C@@]1(C)C4)C2` and `C[C@]12CC[C@H]3[C@](CC[C@@H]4[C@]3(C)CCC[C@]4(C)C(=O)O)(C[C@@H]1OC(=O)CCCCCCC(=O)O[C@@H]1C[C@]34CC[C@H]5[C@@](C)(CCC[C@@]5(C)C(=O)O)[C@@H]3CC[C@@]1(C)C4)C2` are the same in MIC: 12.5 µg/mL (≈ 17.6 µM) for the first, 12.5 µg/mL (≈ 16 µM) for the second.

First: C[C@]12CC[C@H]3[C@@]4(CC[C@@H]5[C@]3(C)CCC[C@]5(C)C(=O)OCCCOC(=O)CC(=O)OCCCOC(=O)[C@]3(C)CCC[C@@]5(C)[C@@H]6CC[C@@]7(C)C[C@]6(CC[C@@H]53)C[C@H]7OC(=O)CCCCCCCCC(=O)O[C@H]1C4)C2
Second: C[C@@H]1C[C@]23CC[C@@H]4[C@]5(C)CCC[C@]4(C)C(=O)OCCCOC(=O)CC(=O)OCCCOC(=O)[C@]4(C)CCC[C@@]6(C)[C@@H]7CC[C@@]8(C[C@@]7(CC[C@@H]64)C[C@@H]8C)OC(=O)CCCCCCCCC(=O)O[C@]1(CC[C@@H]25)C3
The MIC of the first is 20-fold lower: 1 µg/mL (≈ 1.01 µM) for the first, 20 µg/mL (≈ 20.2 µM) for the second.

Compared with `C[C@@H]1C[C@]23CC[C@@H]4[C@](C)(CCC[C@]4(C)C(=O)O)[C@H]2CC[C@@]1(OC(=O)CC(=O)O[C@]12CC[C@@H]4[C@](CC[C@H]5[C@@]4(C)CCC[C@@]5(C)C(=O)O)(C[C@@H]1C)C2)C3`, `C[C@@H]1C[C@]23CC[C@@H]4[C@](C)(CCC[C@]4(C)C(=O)O)[C@H]2CC[C@@]1(OC(=O)CCCCCCC(=O)O[C@]12CC[C@@H]4[C@](CC[C@H]5[C@@]4(C)CCC[C@@]5(C)C(=O)O)(C[C@@H]1C)C2)C3` is 4-fold higher in MIC: 5 µg/mL (≈ 7.05 µM) for the first, 20 µg/mL (≈ 25.7 µM) for the second.

Going from `C[C@H]1C[C@@]23CC[C@H]4[C@@](C)(CCC[C@@]4(C)C(=O)O)[C@@H]2CC[C@]1(O)C3` to `C[C@]12CC[C@H]3[C@](CC[C@@H]4[C@]3(C)CCC[C@]4(C)C(=O)O)(C[C@@H]1OC(=O)CCCCCCCCC(=O)O[C@@H]1C[C@]34CC[C@H]5[C@@](C)(CCC[C@@]5(C)C(=O)O)[C@@H]3CC[C@@]1(C)C4)C2`, the MIC falls from 20 µg/mL (≈ 62.4 µM) to 12.5 µg/mL (≈ 15.5 µM) (1.6-fold).

For `C[C@@H]1C[C@]23CC[C@@H]4[C@]5(C)CCC[C@]4(C)C(=O)OC(=O)[C@]4(C)CCC[C@@]6(C)[C@@H]7CC[C@@]8(C[C@@]7(CC[C@@H]64)C[C@@H]8C)OC(=O)CCCCCCCCC(=O)O[C@]1(CC[C@@H]25)C3`, the MIC was 5 µg/mL (≈ 6.34 µM).
